Measured values taken from US20220281848A1, “PYRAZOLE-SUBSTITUTED PYRROLIDINONES AS HERBICIDES” (FMC Corporation, priority 2019, published 2022).

Legend:
Type in all cases: in vivo
Details in all cases: 19 to 21 days
[1] = tested on: Italian ryegrass (Lolium multiflorum); assay: Test B preemergence, Italian ryegrass
Excerpt: (§1) Seeds of plant species selected from blackgrass (Alopecurus myosuroides), Italian ryegrass (Lolium multiflorum), wheat, winter (winter wheat, Triticum aestivum), corn (Zea mays), large (Lg) crabgrass (Digitaria sanguinalis), giant foxtail (Setaria faberi), johnsongrass (Sorghum halepense), ragweed (common ragweed, Ambrosia elatior), soybean (Glycine max), barnyardgrass (Echinochloa crus-galli), waterhemp (common waterhemp, Amaranthus rudis), palmer pigweed (Amaranthus palmeri), and surinam grass (Brachiaria decumbens), were planted into a silt loam soil and treated preemergence with test chemicals formulated in a non-phytotoxic solvent mixture which included a surfactant.
(§2) Treated plants and controls were maintained in a greenhouse for 19 to 21 days, after which time all species were compared to controls and visually evaluated. Plant response ratings, summarized in Table B, are based on a scale of 0 to 100 where 0 is no effect and 100 is complete control.

[2] = tested on: johnsongrass (Sorghum halepense); assay: Test B preemergence, johnsongrass
Excerpt: as §1, §2

[3] = tested on: soybean (Glycine max); assay: Test B preemergence, soybean
Excerpt: as §1, §2

[4] = tested on: soybean (Glycine max); assay: Test C preemergence, soybean
Excerpt: (§3) Seeds of plant species selected from corn (Zea mays), soybean (Glycine max), velvetleaf (Abutilon theophrasti), palmer pigweed (Amaranthus palmeri), waterhemp (common waterhemp, Amaranthus rudis), surinam grass (Brachiaria decumbens), large (Lg) crabgrass (Digitaria sanguinalis), fall panicum (Panicum dichotomiflorum), giant foxtail (Setaria faberi), ragweed (common ragweed, Ambrosia elatior), barnyardgrass (Echinochloa crus-galli), E. Black Nightshade (Solanum ptycanthum), and horseweed (Conyza canadensis), were planted into a silt loam soil and treated preemergence with test chemicals formulated in a non-phytotoxic solvent mixture which included a surfactant.
(§4) Treated plants and controls were maintained in a greenhouse for 19 to 21 days, after which time all species were compared to controls and visually evaluated. Plant response ratings, summarized in Table C, are based on a scale of 0 to 100 where 0 is no effect and 100 is complete control.

[5] = tested on: giant foxtail (Setaria faberi); assay: Test C preemergence, giant foxtail
Excerpt: as §3, §4

[6] = tested on: barnyardgrass (Echinochloa crus-galli); assay: Test C preemergence, barnyardgrass
Excerpt: as §3, §4

## CN1C[C@H](c2cc(C(F)(F)F)n(C)n2)[C@@H](C(=O)Nc2cccc(F)c2F)C1=O [Compound 13, (3S,4R)—N-(2,3-difluorophenyl)-1-methyl-4-[1-methyl-5-(trifluoromethyl)-1H-pyrazol-3-yl]-2-oxo-3-pyrrolidinecarboxamide]
[1]; 16 g ai/ha Preemergence
  Plant response rating (0 no effect, 100 complete control) Ryegrass, Italian: 0
[1]; 31 g ai/ha Preemergence
  Plant response rating (0 no effect, 100 complete control) Ryegrass, Italian: 25
[1]; 62 g ai/ha Preemergence
  Plant response rating (0 no effect, 100 complete control) Ryegrass, Italian: 65
[1]; 125 g ai/ha Preemergence
  Plant response rating (0 no effect, 100 complete control) Ryegrass, Italian: 92
[2]; 16 g ai/ha Preemergence
  Plant response rating (0 no effect, 100 complete control) Johnsongrass: 0
[2]; 31 g ai/ha Preemergence
  Plant response rating (0 no effect, 100 complete control) Johnsongrass: 8
[2]; 62 g ai/ha Preemergence
  Plant response rating (0 no effect, 100 complete control) Johnsongrass: 15
[2]; 125 g ai/ha Preemergence
  Plant response rating (0 no effect, 100 complete control) Johnsongrass: 55
[3]; 16 g ai/ha Preemergence
  Plant response rating (0 no effect, 100 complete control) Soybean: 0
[3]; 31 g ai/ha Preemergence
  Plant response rating (0 no effect, 100 complete control) Soybean: 0
[3]; 62 g ai/ha Preemergence
  Plant response rating (0 no effect, 100 complete control) Soybean: 0
[3]; 125 g ai/ha Preemergence
  Plant response rating (0 no effect, 100 complete control) Soybean: 8
[4]; 4 g ai/ha Preemergence
  Plant response rating (0 no effect, 100 complete control) Soybean: 0
[4]; 8 g ai/ha Preemergence
  Plant response rating (0 no effect, 100 complete control) Soybean: 0
[4]; 16 g ai/ha Preemergence
  Plant response rating (0 no effect, 100 complete control) Soybean: 0
[4]; 31 g ai/ha Preemergence
  Plant response rating (0 no effect, 100 complete control) Soybean: 0
[4]; 62 g ai/ha Preemergence
  Plant response rating (0 no effect, 100 complete control) Soybean: 0
[4]; 125 g ai/ha Preemergence
  Plant response rating (0 no effect, 100 complete control) Soybean: 0
[5]; 4 g ai/ha Preemergence
  Plant response rating (0 no effect, 100 complete control) Foxtail, Giant: 0
[5]; 8 g ai/ha Preemergence
  Plant response rating (0 no effect, 100 complete control) Foxtail, Giant: 55
[5]; 16 g ai/ha Preemergence
  Plant response rating (0 no effect, 100 complete control) Foxtail, Giant: 73
[5]; 31 g ai/ha Preemergence
  Plant response rating (0 no effect, 100 complete control) Foxtail, Giant: 88
[5]; 62 g ai/ha Preemergence
  Plant response rating (0 no effect, 100 complete control) Foxtail, Giant: 95
[5]; 125 g ai/ha Preemergence
  Plant response rating (0 no effect, 100 complete control) Foxtail, Giant: 95
[6]; 4 g ai/ha Preemergence
  Plant response rating (0 no effect, 100 complete control) Barnyardgrass: 0
[6]; 8 g ai/ha Preemergence
  Plant response rating (0 no effect, 100 complete control) Barnyardgrass: 28
[6]; 16 g ai/ha Preemergence
  Plant response rating (0 no effect, 100 complete control) Barnyardgrass: 63
[6]; 31 g ai/ha Preemergence
  Plant response rating (0 no effect, 100 complete control) Barnyardgrass: 68
[6]; 62 g ai/ha Preemergence
  Plant response rating (0 no effect, 100 complete control) Barnyardgrass: 97
[6]; 125 g ai/ha Preemergence
  Plant response rating (0 no effect, 100 complete control) Barnyardgrass: 97
